Calls of active or inactive are those of the source.
Tests used:
[1] = target: Beta-2 adrenergic receptor (Homo sapiens, UniProt P07550); test: beta2AR agonists driving receptor internalization, dose response, cell-based, FAP fluorogen, flow cytometry, cherry pick 1 (AID 588763); format: functional
[2] = HEp-2 cell cytotoxicity, dose response, cytotoxicity control for RSV inhibitor project, HTS (AID 2410); format: functional; details: human respiratory syncytial virus
Caspase-3 = target: T1, Caspase-3 (Homo sapiens, UniProt P42574); format: functional;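 note: Dose-response selectivity test against caspase-3 for candidate inhibitors of sentrin-specific proteases (SENPs)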
T1 sequence (P42574 whole entry): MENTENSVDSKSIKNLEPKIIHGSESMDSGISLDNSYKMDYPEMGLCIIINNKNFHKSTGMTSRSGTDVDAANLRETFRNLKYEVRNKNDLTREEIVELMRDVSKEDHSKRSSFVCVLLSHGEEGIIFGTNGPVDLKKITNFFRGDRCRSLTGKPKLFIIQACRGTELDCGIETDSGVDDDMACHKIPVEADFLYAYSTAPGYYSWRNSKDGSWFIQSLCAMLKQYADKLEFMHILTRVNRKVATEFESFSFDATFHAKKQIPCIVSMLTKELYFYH

[3] = target: T2, Sentrin-specific protease 7 (Homo sapiens, UniProt Q9BQF6); format: functional;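 note: Luminescence-based dose-response confirmation of ultra-high-throughput screening hits, measuring inhibition of SENP7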
T2 sequence (Q9BQF6 whole entry): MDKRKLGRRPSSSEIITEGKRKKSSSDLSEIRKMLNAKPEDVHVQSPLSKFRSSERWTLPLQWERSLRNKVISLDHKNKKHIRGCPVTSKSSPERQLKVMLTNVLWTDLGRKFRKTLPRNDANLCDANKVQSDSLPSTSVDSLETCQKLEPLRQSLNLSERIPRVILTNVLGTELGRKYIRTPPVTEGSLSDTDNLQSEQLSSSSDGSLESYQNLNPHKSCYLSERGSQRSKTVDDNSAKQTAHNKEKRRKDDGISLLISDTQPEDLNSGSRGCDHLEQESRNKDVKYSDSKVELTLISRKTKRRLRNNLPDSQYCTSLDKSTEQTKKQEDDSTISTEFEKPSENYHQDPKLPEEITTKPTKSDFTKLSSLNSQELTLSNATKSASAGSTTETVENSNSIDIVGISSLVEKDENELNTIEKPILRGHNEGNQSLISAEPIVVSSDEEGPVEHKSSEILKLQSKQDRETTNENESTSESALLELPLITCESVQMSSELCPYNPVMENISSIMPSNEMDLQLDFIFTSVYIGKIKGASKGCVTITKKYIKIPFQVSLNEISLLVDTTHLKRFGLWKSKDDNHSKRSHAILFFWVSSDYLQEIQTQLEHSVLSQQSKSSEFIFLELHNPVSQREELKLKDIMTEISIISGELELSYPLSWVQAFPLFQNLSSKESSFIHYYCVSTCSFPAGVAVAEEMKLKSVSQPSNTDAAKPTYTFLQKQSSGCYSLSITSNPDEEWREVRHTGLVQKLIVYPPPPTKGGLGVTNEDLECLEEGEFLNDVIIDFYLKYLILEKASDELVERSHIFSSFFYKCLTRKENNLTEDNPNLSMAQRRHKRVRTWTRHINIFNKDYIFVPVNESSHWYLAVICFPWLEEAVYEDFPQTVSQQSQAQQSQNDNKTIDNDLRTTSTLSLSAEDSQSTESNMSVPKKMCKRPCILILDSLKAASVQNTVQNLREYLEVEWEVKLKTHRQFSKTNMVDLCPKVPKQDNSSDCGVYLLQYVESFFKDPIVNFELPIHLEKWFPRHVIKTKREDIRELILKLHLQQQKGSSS

[4] = target: T3, Sentrin-specific protease 6 (Homo sapiens, UniProt Q9GZR1); format: functional;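 note: Luminescence-based dose-response confirmatory assay of SENP6 inhibition, following up an ultra-high-throughput screen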
T3 sequence (Q9GZR1 whole entry): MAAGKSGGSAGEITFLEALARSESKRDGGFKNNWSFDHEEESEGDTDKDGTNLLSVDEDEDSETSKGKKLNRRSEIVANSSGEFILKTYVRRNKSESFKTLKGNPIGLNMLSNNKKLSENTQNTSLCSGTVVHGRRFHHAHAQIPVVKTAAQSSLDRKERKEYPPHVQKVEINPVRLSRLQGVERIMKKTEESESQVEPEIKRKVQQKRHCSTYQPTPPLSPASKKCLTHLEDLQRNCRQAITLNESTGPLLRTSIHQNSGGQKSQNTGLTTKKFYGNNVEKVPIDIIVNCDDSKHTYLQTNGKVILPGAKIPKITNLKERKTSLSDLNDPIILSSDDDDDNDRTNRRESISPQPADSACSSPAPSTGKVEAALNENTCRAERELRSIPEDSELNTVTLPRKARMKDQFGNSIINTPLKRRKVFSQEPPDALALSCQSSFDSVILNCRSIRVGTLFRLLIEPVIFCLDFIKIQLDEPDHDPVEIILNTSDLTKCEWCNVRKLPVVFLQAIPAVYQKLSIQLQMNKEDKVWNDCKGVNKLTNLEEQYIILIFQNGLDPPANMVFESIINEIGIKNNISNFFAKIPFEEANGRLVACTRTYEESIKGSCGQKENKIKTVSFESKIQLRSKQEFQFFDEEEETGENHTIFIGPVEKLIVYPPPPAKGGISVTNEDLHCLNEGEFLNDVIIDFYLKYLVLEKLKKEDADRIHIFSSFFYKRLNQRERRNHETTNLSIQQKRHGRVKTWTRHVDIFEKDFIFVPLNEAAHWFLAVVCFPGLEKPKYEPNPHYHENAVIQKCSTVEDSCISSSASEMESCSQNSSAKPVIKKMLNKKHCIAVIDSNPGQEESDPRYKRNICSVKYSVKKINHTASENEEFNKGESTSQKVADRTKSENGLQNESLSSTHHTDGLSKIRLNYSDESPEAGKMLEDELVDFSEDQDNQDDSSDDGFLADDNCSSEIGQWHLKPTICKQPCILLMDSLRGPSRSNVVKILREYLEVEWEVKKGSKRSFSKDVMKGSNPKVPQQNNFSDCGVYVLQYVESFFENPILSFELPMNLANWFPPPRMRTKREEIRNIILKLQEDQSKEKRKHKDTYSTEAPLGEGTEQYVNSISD

[5] = target: T4, Sentrin-specific protease 8 (Homo sapiens, UniProt Q96LD8); format: functional;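 note: luminescence read-out of SENP8 inhibition, dose-response confirmation following an ultra-high-throughput screen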
T4 sequence (Q96LD8 whole entry): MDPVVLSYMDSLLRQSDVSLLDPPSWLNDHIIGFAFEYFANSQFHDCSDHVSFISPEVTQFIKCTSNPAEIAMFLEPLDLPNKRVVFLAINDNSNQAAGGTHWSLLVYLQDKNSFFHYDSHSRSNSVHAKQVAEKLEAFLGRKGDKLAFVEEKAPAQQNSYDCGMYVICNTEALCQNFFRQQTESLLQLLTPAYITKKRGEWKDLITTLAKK

HeLa = test: HeLa cell cytotoxicity, dose response, cytotoxicity control for MITF activator project, CellTiter-Glo luminescence, cherry-pick samples (AID 540259); format: functional, cell-based; details: Homo sapiens
Beta-galactosidase = Beta-galactosidase (Escherichia coli, UniProt Q8VNN2); test: PubChem AID 485352; format: functional
[6] = target: Type-1 angiotensin II receptor (Homo sapiens, UniProt P30556); test: AT1 receptor antagonists, dose response, selectivity assay for APJ receptor antagonist project, cell-based, uHTS hits (AID 463214); format: functional;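 note: antagonist potency against angiotensin II stimulated AT1 response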
Genome polyprotein = Genome polyprotein (dengue virus type 2, UniProt P29990); test: Dengue-2 NS5 methyltransferase inhibitors, primary screen, biochemical, confirmation dose response (AID 588689); format: functional
Cysteine protease ATG4B = Cysteine protease ATG4B (Homo sapiens, UniProt Q9Y4P1); format: functional;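 note: Fluorescence-based dose-response confirmation assay measuring inhibition of ATG4B activity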
Phospholipase A2 = Phospholipase A2 (Homo sapiens, UniProt P04054); format: functional;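 note: confirmatory dose-response counterscreen on phospholipase A2, testing hits that came from an ultra-high-throughput screen for ATG4B inhibitors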
[7] = target: T5, Heat shock factor protein 1 (Mus musculus, UniProt P38532); test: inhibition of MG132-induced HSE-luciferase signal, confirmation, cell-based, NIH3T3, luminescence, dose retest (AID 2382); format: functional;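 note: NIH3T3 fibroblasts with HSF1-driven luciferase reporter stressed by proteasome inhibitor MG132; luminescence from HSF1-driven luciferase expression after 8 hours of MG132 stress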
T5 sequence (P38532 whole entry): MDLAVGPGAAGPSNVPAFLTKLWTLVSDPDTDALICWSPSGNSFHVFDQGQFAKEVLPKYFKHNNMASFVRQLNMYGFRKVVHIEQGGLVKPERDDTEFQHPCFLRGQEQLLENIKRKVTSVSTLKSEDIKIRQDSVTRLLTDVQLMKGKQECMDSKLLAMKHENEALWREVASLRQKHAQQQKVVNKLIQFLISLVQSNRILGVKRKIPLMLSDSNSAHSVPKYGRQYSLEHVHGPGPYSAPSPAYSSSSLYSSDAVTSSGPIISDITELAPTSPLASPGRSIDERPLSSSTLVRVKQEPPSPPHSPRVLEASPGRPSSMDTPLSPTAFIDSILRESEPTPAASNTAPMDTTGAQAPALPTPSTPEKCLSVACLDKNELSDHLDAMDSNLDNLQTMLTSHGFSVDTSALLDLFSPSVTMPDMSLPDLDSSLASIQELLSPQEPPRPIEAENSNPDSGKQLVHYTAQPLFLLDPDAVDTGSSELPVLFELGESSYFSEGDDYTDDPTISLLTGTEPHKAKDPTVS

[8] = target: Voltage-dependent T-type calcium channel subunit alpha-1H (Homo sapiens, UniProt O95180); format: functional;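 note: channel activity triggered by adding a high calcium stimulation buffer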
[9] = Luminescence Cell-Based Dose Confirmation HTS to Identify Activators of 5'UTR Stem-Loop Driven Alpha-Synuclein mRNA Translation in H4 Neuroglioblastoma Cells. [Related pubchem assays: 1829 (Project Summary), 1814 (Primary HTS)]; format: functional
[10] = Luminescence Cell-Based Dose Response HTS to Identify Activators of Luciferase Translation or Activity in H4 […] Cells. [Related pubchem assays: 1829 (Project Summary), 1814 (Primary HTS)]; format: functional
cells [11] = format: functional, cell-based
H4 = test: Luminescence Cell-Based Dose Response HTS to Identify Activators of 5'UTR Stem-Loop Driven Prion Protein mRNA Translation in H4 Neuroglioblastoma Cells. [Related pubchem assays: 1829 (Project Summary), 1814 (Primary HTS)]; format: functional; details: Homo sapiens
cells [12] = format: functional, cell-based; remark: listed apart in the source
HEK293 = test: cells; format: functional, cell-based; details: Homo sapiens
[13] = target: T6, Nuclear receptor subfamily 0 group B member 1 (Homo sapiens, UniProt P51843); test: Luminescence-based cell-based high throughput dose response assay for inhibitors of the orphan nuclear receptor subfamily 0, group B, member 1 (DAX1; NR0B1). [Related pubchem assays (depositor defined):AID504766, AID504790]; format: functional
T6 sequence (P51843 whole entry): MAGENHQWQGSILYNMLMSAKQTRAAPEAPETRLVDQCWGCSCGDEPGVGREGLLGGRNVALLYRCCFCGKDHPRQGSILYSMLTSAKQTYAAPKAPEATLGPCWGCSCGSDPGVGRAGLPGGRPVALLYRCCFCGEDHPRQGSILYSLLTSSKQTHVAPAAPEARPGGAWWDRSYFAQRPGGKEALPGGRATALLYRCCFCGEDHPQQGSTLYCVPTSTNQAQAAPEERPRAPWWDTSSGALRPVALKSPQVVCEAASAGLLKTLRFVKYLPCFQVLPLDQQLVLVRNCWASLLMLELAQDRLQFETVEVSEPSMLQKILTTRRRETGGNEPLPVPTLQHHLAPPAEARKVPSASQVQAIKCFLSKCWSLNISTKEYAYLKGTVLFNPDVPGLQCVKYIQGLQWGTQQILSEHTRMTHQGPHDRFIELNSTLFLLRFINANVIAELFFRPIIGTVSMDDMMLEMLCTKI

[14] = target: T7, Oxysterols receptor LXR-beta (Homo sapiens, UniProt P55055); format: functional, cell-based;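 note: agonist activity at LXR measured by a cell-based luminescence readout across a dose range, run as a counterscreen for daf-12 agonists; HEK293 cells with Gal4-LXR fusion and GAL4-driven luciferase reporter; potency for activation of Gal4-LXR reporter so compounds are agonists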
T7 sequence (P55055 whole entry): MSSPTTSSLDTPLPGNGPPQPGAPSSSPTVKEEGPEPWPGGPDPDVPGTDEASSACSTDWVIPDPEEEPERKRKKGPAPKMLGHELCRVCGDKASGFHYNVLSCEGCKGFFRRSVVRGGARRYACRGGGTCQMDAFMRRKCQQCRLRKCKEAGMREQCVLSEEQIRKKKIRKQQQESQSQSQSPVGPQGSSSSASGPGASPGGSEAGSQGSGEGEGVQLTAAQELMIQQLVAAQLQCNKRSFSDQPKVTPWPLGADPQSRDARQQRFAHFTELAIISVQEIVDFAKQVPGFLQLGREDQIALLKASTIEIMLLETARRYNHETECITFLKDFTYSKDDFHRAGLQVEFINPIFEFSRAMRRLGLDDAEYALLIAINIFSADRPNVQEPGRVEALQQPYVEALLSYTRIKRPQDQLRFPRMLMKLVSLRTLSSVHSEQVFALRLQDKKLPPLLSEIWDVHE

Vero = Vero cell cytotoxicity, cytotoxicity control for flavivirus capping enzyme inhibitors (AID 588742); format: functional; details: Chlorocebus sabaeus

Chain of Phospholipase A2 (P04054 whole entry): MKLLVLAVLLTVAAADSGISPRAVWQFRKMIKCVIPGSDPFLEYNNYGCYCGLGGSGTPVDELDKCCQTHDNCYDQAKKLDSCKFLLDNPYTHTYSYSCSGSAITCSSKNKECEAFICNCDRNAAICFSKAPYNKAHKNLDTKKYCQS
Chain of Beta-galactosidase (Q8VNN2 whole entry): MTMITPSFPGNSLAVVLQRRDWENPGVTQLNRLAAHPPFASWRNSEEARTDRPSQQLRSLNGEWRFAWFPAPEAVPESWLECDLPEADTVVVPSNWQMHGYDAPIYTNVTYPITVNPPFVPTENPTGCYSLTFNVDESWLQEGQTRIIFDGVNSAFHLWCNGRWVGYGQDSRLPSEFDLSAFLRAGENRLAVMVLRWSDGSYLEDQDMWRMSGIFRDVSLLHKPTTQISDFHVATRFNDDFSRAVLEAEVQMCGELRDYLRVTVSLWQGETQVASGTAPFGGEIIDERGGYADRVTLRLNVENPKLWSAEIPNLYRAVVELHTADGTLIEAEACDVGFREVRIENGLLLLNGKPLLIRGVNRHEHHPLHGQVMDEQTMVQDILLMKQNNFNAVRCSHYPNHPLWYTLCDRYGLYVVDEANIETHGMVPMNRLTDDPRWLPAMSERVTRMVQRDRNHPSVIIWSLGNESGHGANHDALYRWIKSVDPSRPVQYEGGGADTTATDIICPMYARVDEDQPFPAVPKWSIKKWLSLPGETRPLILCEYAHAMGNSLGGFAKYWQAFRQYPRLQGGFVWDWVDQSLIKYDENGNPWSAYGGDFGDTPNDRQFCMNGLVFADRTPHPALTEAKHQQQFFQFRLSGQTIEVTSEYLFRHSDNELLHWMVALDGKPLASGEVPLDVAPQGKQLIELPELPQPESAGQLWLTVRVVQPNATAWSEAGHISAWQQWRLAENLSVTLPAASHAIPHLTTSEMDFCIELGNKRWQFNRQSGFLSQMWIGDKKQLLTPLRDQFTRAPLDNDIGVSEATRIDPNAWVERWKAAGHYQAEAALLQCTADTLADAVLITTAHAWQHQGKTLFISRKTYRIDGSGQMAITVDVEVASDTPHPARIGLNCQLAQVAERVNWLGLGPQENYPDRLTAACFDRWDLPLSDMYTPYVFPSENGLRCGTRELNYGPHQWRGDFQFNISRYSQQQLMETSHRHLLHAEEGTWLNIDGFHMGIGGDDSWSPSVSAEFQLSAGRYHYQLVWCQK
Chain of Type-1 angiotensin II receptor (P30556 whole entry): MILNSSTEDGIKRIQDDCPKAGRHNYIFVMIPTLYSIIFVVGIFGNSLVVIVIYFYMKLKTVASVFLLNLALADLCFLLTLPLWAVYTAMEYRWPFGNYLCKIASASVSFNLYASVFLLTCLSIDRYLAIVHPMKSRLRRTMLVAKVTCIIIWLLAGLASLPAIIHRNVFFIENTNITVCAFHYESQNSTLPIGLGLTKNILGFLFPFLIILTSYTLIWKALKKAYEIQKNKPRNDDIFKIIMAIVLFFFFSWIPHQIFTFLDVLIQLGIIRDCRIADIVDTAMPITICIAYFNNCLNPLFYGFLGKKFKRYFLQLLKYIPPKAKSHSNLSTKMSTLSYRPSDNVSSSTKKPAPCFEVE
Chain of Beta-2 adrenergic receptor (P07550 whole entry): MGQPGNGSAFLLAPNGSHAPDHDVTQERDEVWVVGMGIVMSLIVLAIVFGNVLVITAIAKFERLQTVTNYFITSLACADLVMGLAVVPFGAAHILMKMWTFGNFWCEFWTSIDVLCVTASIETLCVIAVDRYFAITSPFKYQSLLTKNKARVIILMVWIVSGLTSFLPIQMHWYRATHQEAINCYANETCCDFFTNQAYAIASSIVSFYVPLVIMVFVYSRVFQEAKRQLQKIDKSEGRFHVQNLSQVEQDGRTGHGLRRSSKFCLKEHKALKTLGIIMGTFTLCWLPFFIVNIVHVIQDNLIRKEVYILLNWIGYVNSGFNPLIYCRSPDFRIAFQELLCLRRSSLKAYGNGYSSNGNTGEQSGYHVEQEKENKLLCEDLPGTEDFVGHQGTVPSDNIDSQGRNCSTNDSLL
Chain of Genome polyprotein (P29990 2492-3391 limits assumed): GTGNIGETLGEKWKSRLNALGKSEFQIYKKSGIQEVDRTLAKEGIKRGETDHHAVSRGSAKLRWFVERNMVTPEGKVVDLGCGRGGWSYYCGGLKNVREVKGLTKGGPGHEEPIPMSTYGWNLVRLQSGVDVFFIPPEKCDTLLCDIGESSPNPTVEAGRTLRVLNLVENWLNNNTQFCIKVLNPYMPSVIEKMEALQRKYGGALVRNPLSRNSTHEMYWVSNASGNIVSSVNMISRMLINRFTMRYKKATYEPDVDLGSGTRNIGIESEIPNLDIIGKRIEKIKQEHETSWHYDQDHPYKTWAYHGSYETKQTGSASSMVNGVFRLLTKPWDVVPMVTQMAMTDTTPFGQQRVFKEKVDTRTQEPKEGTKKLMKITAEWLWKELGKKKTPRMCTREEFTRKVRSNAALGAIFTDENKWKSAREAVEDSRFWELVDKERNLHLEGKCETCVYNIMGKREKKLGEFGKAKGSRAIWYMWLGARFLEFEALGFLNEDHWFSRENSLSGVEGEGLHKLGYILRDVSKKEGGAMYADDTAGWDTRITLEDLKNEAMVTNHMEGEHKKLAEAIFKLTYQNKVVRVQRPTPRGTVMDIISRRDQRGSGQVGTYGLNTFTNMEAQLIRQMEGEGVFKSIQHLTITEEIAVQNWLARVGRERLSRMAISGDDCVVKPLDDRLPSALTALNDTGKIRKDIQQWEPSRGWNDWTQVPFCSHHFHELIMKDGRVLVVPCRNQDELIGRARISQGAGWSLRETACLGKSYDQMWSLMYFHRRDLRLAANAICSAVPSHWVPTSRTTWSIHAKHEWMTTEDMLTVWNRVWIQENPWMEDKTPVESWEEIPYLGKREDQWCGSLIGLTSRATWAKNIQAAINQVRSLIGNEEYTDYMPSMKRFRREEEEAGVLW
Chain of Cysteine protease ATG4B (Q9Y4P1 whole entry): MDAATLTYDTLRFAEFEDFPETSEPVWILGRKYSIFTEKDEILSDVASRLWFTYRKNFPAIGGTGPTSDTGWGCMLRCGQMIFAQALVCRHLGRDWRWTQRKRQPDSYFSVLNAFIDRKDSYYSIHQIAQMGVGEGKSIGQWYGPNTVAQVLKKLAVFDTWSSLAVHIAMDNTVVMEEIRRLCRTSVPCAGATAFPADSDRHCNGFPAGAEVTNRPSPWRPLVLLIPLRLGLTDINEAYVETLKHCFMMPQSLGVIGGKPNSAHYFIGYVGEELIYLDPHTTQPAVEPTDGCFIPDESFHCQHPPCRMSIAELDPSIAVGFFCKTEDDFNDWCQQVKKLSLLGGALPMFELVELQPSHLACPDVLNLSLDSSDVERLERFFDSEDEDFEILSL

In the case of `CN(CC(=O)N1CCN(c2ncccn2)CC1)S(=O)(=O)c1ccc(Cl)cc1`, the EC50 [1] is reported as 0.117 µM (active).

For `COc1cccc(NC(=O)c2csc3c2CCCC3)c1`, the CC50 [2] was 32.5 µM (active), the IC50 (Caspase-3) was 19.2 µM (active) and the IC50 [3] was 5.17 µM (active). For the same compound, the IC50 [4] was 15.5 µM (active), the IC50 [5] was 18.9 µM (active) and the AC50 (HeLa) was 49.7 µM (active).

In the case of `Cc1cc(C(=O)OCC(=O)c2cccc([N+](=O)[O-])c2)c2ccccc2n1`, the EC50 (Beta-galactosidase) is reported as > 40 µM (inactive) and the IC50 [6] is reported as 17.4 µM (active).

In the case of `O=C1Nc2ccc(F)cc2C12Nc1ccccc1-c1nnc(SCc3ccccc3Cl)nc1O2` (stereo unspecified), the EC50 (Beta-galactosidase) is reported as > 40 µM (inactive), the IC50 [6] is reported as 25.5 µM (not active) and the IC50 (Genome polyprotein) is reported as > 100 µM (active).

For `CCOC(=O)C1CCCN(C(=O)c2ccc3c(=O)n(Cc4ccccc4OC)c(=S)[nH]c3c2)C1` (stereo unspecified), the IC50 (Cysteine protease ATG4B) was 19.6 µM (active) and the IC50 (Phospholipase A2) was 9.33 µM (active).

With `CC(=O)Nc1ccc(-c2cn3c(n2)SCC3)cc1` the EC50 [7] was > 195 µM (not active) and the EC50 [1] was 10.9 µM (inactive).

In the case of `Cc1cccc(C)c1OCC(=O)Nc1cccc(NC(=O)c2ccco2)c1`, the EC50 [8] is reported as 6.78 µM (active), the IC50 (Cysteine protease ATG4B) is reported as 15.9 µM (active) and the IC50 (Phospholipase A2) is reported as 8.37 µM (active).

With `O=C(Nc1ncccc1O)c1ccc(C(=O)c2ccccc2)cc1` the EC50 [9] was 11.4 µM (active), the EC50 [10] was 16.4 µM (active) and the EC50 (cells [11]) was 72.7 µM (active). The EC50 (H4) was 23 µM (active), the EC50 (cells [12]) was 48.2 µM (active) and the IC50 (HEK293) was 1.04 µM (active). The IC50 [13] was > 67.6 µM (inactive) and the EC50 [14] was > 67.5 µM (inactive).

With `COC(=O)COc1ccc(C(C2C(=O)CC(C)(C)CC2=O)C2C(=O)CC(C)(C)CC2=O)cc1` the CC50 (Vero) was > 40 µM (active) and the IC50 (Genome polyprotein) was 48 µM (active).

With `Cc1ccc2[nH]c(/C(C#N)=C/c3ccccc3C(=O)O)nc2c1` the IC50 (HEK293) was > 67.5 µM (inactive) and the IC50 [13] was > 67.5 µM (inactive).

Source: ChEMBL document CHEMBL1201862, “PubChem BioAssay data set” (2004)
